Results from a melting point compilation (Tetko et al.; mined from patent text by program, amines drawn as free bases though some values may be those of a salt).

| SMILES | melting point |
| --- | --- |
| Cc1ccc(Cc2ccc3nc(N)sc3c2)s1 | 179 to 181 °C |
| CC(C)(C)c1nc(C(O)CCC2CCNCC2)c2ccccc2n1 (configuration not stated) | 110 °C |
| CC(C)(C)OC(=O)N[C@@H]1C(=O)N(CCOCc2ccccc2)c2ccccc2-c2ccccc21 | 132 to 134 °C |
| Cc1nn(-c2ccccn2)c2ncc(C(=O)N(C)c3ccccc3)c(Cl)c12 | 154 to 155 °C |
| COc1cccc(OC)c1C(=O)Nc1ccc(C(=O)O)cc1 | 236 to 240 °C |
| C=CCc1cc(C(=O)c2ccc(Cl)c(S(=O)(=O)N=CN(C)C)c2)c(Cl)c(Cl)c1O | 190 to 193 °C |
| CC1CCN(c2occ(C(C)(C)C)c2C#N)C1=O (configuration not stated) | 88 to 90 °C |
| NC1CCN(c2cccc(Cl)n2)CC1 | 36 to 38 °C |
| CC(O)c1cc(Cl)ccc1O (configuration not stated) | 98 °C |
| COC(C)=CC(=O)Nc1cccc(C(F)(F)F)c1 | 90 °C |
| Cc1ccccc1-c1c(NC(=O)Nc2c(C)cccc2C(C)C)c(=O)n(C)c2ccc(Cl)cc12 | 195 to 196 °C |
| Cn1cc(-c2ccc(C(F)(F)F)cc2)c(=O)c(-c2cccc(Cl)c2)c1 | 147 to 151 °C |
| CCOc1nc(NC(C)=O)nc2ccc(Cl)nc12 | 233 °C |
| CNc1cc(-n2ccc3ccccc32)cc(C)n1 | 156 to 158 °C |
| O=C1CCC(N2Cc3c(OCc4ccc(F)c(F)c4)cccc3C2=O)C(=O)N1 (configuration not stated) | 228 to 230 °C |
| C=C(C)c1cc(NC(=O)N2CCN(c3cc(C)cc(C)c3)CC2)c(OC)nc1C | 140 to 142 °C |
| Cn1ccnc1-c1ccc(/C=C/c2ccccc2F)cc1 | 60 to 61 °C |
| Cn1nc(-c2cc3nccnc3[nH]2)cc1-c1ccccc1 | 222 to 223 °C |
| NC(=O)Nc1nc2n(n1)Cc1ccccc1-2 | 261 to 263 °C |
| CCOC(=O)[C@H](Cc1cc(OC)c(OC)cc1I)NC=O | 151 to 152 °C |
| Nc1cc([N+](=O)[O-])c[nH]c1=O | 200 to 201 °C |
| COc1ccc(C(OCC2OC(n3cc(C)c(=O)[nH]c3=O)CC2O[Si](C)(C)C(C)(C)C)(c2ccccc2)c2ccc(OC)cc2)cc1 (configuration not stated) | 214 °C |
| COCc1ccc(N=C2NCCN2)c(Cl)c1 | 108 to 110 °C |
| CC12CCC(=O)C=C1CCC1C2=CCC2(C)C(=O)CCC12 (configuration not stated) | 196 to 202 °C |

| SMILES | melting point |
| --- | --- |
| CN=C(NC#N)C1=CC2(CCCCC2)Oc2ccc([N+](=O)[O-])cc21 | 244 to 245 °C |
| Cc1cc(Cn2c(-c3ccccc3)nc(Cl)c2CC#N)ccc1O | 194 to 196 °C |
| CCC(O)(CC)Cc1ccc(N)cc1 | 85 to 86 °C |
| COCO[C@H]1C[C@H]2OC(C)(C)OC[C@]23C2C(CC[C@]3(O)C1)[C@@]1(OCOC)CC[C@H](CO)[C@@]1(C)C[C@H]2OCOC (some centres not stated) | 154 to 158 °C |
| CCOC(=O)c1cn(CC)c2c(F)c(C)c(F)cc2c1=O | 147 to 150 °C |
| CC(=O)OCCCCn1c(=O)sc2c(=O)[nH]c(N)nc21 | 189 to 190 °C |
| COC(=O)CCCS(=O)c1c(Cc2cccc3ccccc23)sc2c1c(=O)n(C)c(=O)n2CC(C)C (configuration not stated) | 160 to 161 °C |
| COC(=O)c1cc(C(=O)OC)nc(O)n1 | 186 to 188 °C |
| CC1(C)CCC[C@H](NC(c2ccccc2)(c2ccccc2)c2ccccc2)C(=O)N1 | 139 to 140 °C |
| O=C1NC(=O)C(Cc2ccc(OCCOc3ccccc3)cc2)S1 (configuration not stated) | 133 °C |
| COc1ccc(S(=O)(=O)N2c3ccccc3-c3ccccc3C2c2ccccc2)cc1 (configuration not stated) | 145 to 147 °C |
| C#CCN1C(=O)COc2cc(F)c(-n3nc4ccc(Cl)cn4c3=O)cc21 | 196 to 198 °C |
| CCOC(=O)NNc1ccc(-c2ccc(C#N)cc2)nn1 | 235 °C |
| COc1c(Cl)ccc(-c2nc(C=O)c(Cl)c(N)c2F)c1F | 192 to 196 °C |
| COC(=O)c1cc2ccoc2nc1C1=NC(C)(C(C)C)C(=O)N1 (configuration not stated) | 134 to 137 °C |
| C=C(CC1(CC(=C)C(=O)OC(C)(C)C)C(=O)N(C)C(=O)N(C)C1=O)C(=O)OC(C)(C)C | 90 to 91 °C |
| COC(=O)C(C)(O[Si](C)(C)C(C)(C)C)c1ccc([N+](=O)[O-])cc1 (configuration not stated) | 65 to 66 °C |
| CCOC(=O)[C@H]1C2C[C@@H](O)[C@](O)(C(=O)OCc3ccccc3)[C@@H]21 (some centres not stated) | 112 to 114 °C |
| CCOC(=O)CC[C@H](NC(=O)c1ccc(CCc2cnc3[nH]c(NC(=O)C(C)(C)C)nc(=O)c3c2)s1)C(=O)OCC | 57 to 87 °C |
| FC(F)(F)c1ccccc1N=C1CCCc2cc3c(nc21)C(=Nc1ccccc1C(F)(F)F)CCC3 | 162 to 164 °C |
| CCCCC1COC(c2ccc(OC(F)(F)F)cc2)OC1 (configuration not stated) | 23 °C |
| CC(=O)Nc1ccc(S(=O)(=O)Nc2ccc(C(O)(C(F)(F)F)C(F)(F)F)cc2)cc1 | 198 to 200 °C |
| COc1cc(OS(=O)(=O)C(F)(F)F)c(Cl)c(C)c1Cl | 74 °C |
| CN(C)C(=O)Nc1cc(Br)ccc1N1CCc2ccccc21 | 119 to 121 °C |

| SMILES | melting point |
| --- | --- |
| CCCCCCCCCCCCCCS(N)(=O)=O | 92 to 93 °C |
| O=C(O)CCCOc1ccc2nc3c(cc2c1)CC(=O)N3 | 260 °C |
| O=C(c1ccccc1)N1CCc2cc(S(=O)(=O)N3CCN(c4cccc(Cl)c4)CC3)ccc21 | 200 to 201 °C |
| N#Cc1ccc(CN2c3ccc(Cl)cc3C=C(C(=O)O)C2C(F)(F)F)cc1 (configuration not stated) | 258 to 260 °C |
| COc1ccc2c3c1OC1CCCC4(O)C(C2)N(C(=O)C2CCC2)CCC314 (configuration not stated) | 140 °C |
| COc1cc(OC)nc(SC)n1 | 50 to 52 °C |
| COc1ccc(-c2ccc(C(=O)Nc3ccc4cc(CN5CCCCCC5)cnc4c3C)cc2F)cc1 | 160 to 161 °C |
| O=C(O)c1cnc(S)n1Cc1cc(F)cc(F)c1 | 240 to 241 °C |
| CCCc1c(OCCCOc2cc(O)c(-c3cocn3)cc2CC)cccc1Oc1ccccc1C(=O)O | 60 to 61 °C |
| O=C1c2nccnc2C(=O)N1c1ccc(Cl)cn1 | 165 °C |
| CCCCCCCCCCCCC(Oc1ccc(NS(=O)(=O)CCCC)cc1)C(=O)Nc1c(C)cc(C)c(-c2n[nH]c3cc(C(C)(C)C)nn23)c1C (configuration not stated) | 117 to 120 °C |
| CCOC(=O)/C(C)=C/c1ccc(Br)cc1 | 82 °C |
| O=C(NC1CCCCC1)c1ccc(-c2cnc(-c3ccc(NC(=O)c4ccccn4)cc3)[nH]2)cc1 | 250 to 252 °C |
| CCNC(=O)c1cnn(-c2ccccc2)c1Br | 158 to 160 °C |
| CCCCCCCCCCN1CCCN(O)C1=O | 45 to 46 °C |
| COc1cccc(-c2c(C)c(NC(=O)CC(C)(C)C)c(C)c3c2OCC3c2ccc(C(C)C)cc2)c1 (configuration not stated) | 209 to 210 °C |
| CC1c2cc(F)ccc2CCN1C(=O)c1cc2ncc(Br)cn2n1 (configuration not stated) | 174 to 176 °C |
| N#Cc1ccc2[nH]cc(-c3nc(-c4cccnc4)cs3)c2c1 | 240 °C |
| O=[N+]([O-])c1nccn1CC(O)CN1C2CCCCCCC21 (configuration not stated) | 120 to 122 °C |
| COc1cc2c(cc1OC)C(C(S)(C#N)c1ccc(Cl)cc1)=NCC2 (configuration not stated) | 135 to 136 °C |
| Cc1c(Nc2ncccc2C(=O)O)cccc1C(F)F | 232 to 234 °C |
| O=C1Nc2cccc(-c3cccs3)c2/C1=C/c1ccc[nH]1 | 213 to 214 °C |
| CC(C(=O)N1c2ccccc2C(=O)Nc2cccnc21)N1CCN(C)CC1 (configuration not stated) | 223 to 224 °C |
| COc1cccc(Cl)c1-c1cc2c(c3c1C(=O)NC3=O)c1cc(O)ccc1n2CCCBr | 286 to 288 °C |
